Read-outs that look alike come from different tables or passages of the source.
Legend:
Format in all cases: cell-based
[1] = test system: Corynebacterium xerosis; experiment: MIC in the agar incorporation test
Protocol: (§1) Determination of Minimum Inhibitory Concentration (MIC Values) in the Agar Incorporation Test
(§2) 1% stock solutions of the substances are prepared in an appropriate solvent and diluted in serial dilutions 1:2 (to yield end concentrations in the agar of 500-1.9 ppm). 0.3 ml of each dilution step is mixed with 15 ml of nutrient medium while the latter is still liquid. After the nutrient medium has solidified, 10 μl of each test strain in 0.85% NaCl solution are spotted onto the agar medium.
(§3) The plates are incubated at 37° C. for 24 hours and then the highest dilution (lowest concentration) of the test substance at which growth is no longer observable is determined.
(§4) Test Organisms: Staphylococcus aureus ATCC 6583 Staphylococcus epidermidis ATCC 12228 Corynebacterium xerosis ATCC 373 Propionibacterium acnes ATCC Escherichia coli ATCC 10536 Salmonella choleraesuis ATCC Klebsiella pneumoniae ATCC *Candida albicans ATCC 10231
(§5) *Aspergillus niger ATCC 6275

[2] = test system: Staphylococcus epidermis; experiment: MIC in the agar incorporation test
Protocol: as §1, §2, §3, §4, §5

[3] = test system: Propionibacterium acnes; experiment: MIC in the agar incorporation test; conditions: Cutibacterium acnes, read-out: MIC Propionibacterium acnes
Protocol: as §1, §2, §3, §4, §5

[4] = test system: Staphylococcus aureus; experiment: MIC in the agar incorporation test
Protocol: as §1, §2, §3, §4, §5

[5] = test system: Streptococcus gordonii; experiment: MIC against oral microorganisms via broth dilution
Protocol: (§6) Determination of the Minimum Inhibition Concentration (MIC Value) Against Different Oral Microorganisms Via Broth Dilution
(§7) 1500 ppm stock solutions of the substances are prepared in ethanol and pipetted into the growth medium to yield concentrations between 0.94 and 15 ppm. Bacteria are taken from blood agar plates with cotton swabs and adjusted in the appropriate growth medium to yield an optical density corresponding to McFarland 0.5. This suspension is directly used in the case of F. nucleatum and P. nigrescens. For the other strains, the suspension is diluted 1:20. 0.1 ml of these bacterial suspensions are added to 2 ml of the substance solutions. After the incubation time, the tubes are assessed for growth (turbidity).
(§8) Test Organisms: *Actinobacillus actinomycetemcomitans ATCC 43718 *Stretococcus gordonii ATCC 10558 *Streptococcus mutans ATCC 33402 Actinomyces viscosus ATCC 43146 Fusobacterium nucleatum subsp. polymorphum ATCC 10953 Porphyromonas gingivalis ATCC 33277
(§9) Prevotella nigrescens ATCC 33563

[6] = test system: Actinomyces viscosus; experiment: MIC against oral microorganisms via broth dilution
Protocol: as §6, §7, §8, §9

[7] = test system: Streptococcus mutans; experiment: MIC against oral microorganisms via broth dilution
Protocol: as §6, §7, §8, §9

[8] = test system: Fusobacterium nucleatum subsp. polymorphum; experiment: MIC against oral microorganisms via broth dilution
Protocol: as §6, §7, §8, §9

[9] = test system: Prevotella nigrescens; experiment: MIC against oral microorganisms via broth dilution
Protocol: as §6, §7, §8, §9

[10] = test system: Porphyromnas gingivalis; experiment: MIC against oral microorganisms via broth dilution; conditions: read-out: MIC Porphyromnas gingivalis
Protocol: as §6, §7, §8, §9

[11] = test system: Corynebacterium minutissimum; experiment: MIC in the agar incorporation test; conditions: read-out: MIC Corynebacterium minutissimum
[12] = test system: Klebsiella pneumoniae; experiment: MIC in the agar incorporation test; conditions: Mueller Hinton agar, 24 hours at 37° C.
Protocol: as §1, §2, §3, §4, §5

[13] = test system: Salmonella choleraesuis; experiment: MIC in the agar incorporation test; conditions: Salmonella enterica, Mueller Hinton agar, 24 hours at 37° C.
Protocol: as §1, §2, §3, §4, §5

[14] = test system: Actinobacillus actinomycetemcomitans; experiment: MIC against oral microorganisms via broth dilution; conditions: Aggregatibacter actinomycetemcomitans, ATCC43718; broth dilution 0.94-15 ppm, 24 h aerobically with 10% CO2, ATCC 43718
Protocol: as §6, §7, §8, §9

[15] = ATCC373, agar incorporation, Mueller Hinton agar, 24 hours at 37° C., ATCC 373, read-out: MIC Corynebacterium xerosis
[16] = ATCC12228, agar incorporation, Mueller Hinton agar, 24 hours at 37° C., ATCC 12228, read-out: MIC Staphylococcus epidermis
[17] = agar incorporation, Mueller Hinton agar, 24 hours at 37° C.
[18] = ATCC6583, agar incorporation, Mueller Hinton agar, 24 hours at 37° C., ATCC 6583, read-out: MIC Staphylococcus aureus
[19] = ATCC10558, broth dilution 0.94-15 ppm, 24 h aerobically with 10% CO2, ATCC 10558, read-out: MIC Streptococcus gordonii
[20] = ATCC43146, broth dilution 0.94-15 ppm, 7-10 days at 37° C. anaerobically, ATCC 43146, read-out: MIC Actinomyces viscosus
[21] = ATCC33402, broth dilution 0.94-15 ppm, 24 h aerobically with 10% CO2, ATCC 33402, read-out: MIC Streptococcus mutans
[22] = ATCC10953, broth dilution 0.94-15 ppm, 7-10 days at 37° C. anaerobically, ATCC 10953, read-out: MIC Fusobacterium nucleatum subsp. polymorphum
[23] = ATCC33563, broth dilution 0.94-15 ppm, Columbia bouillon, 7-10 days at 37° C. anaerobically, ATCC 33563, read-out: MIC Prevotella nigrescens
[24] = broth dilution 0.94-15 ppm, Columbia bouillon, 7-10 days at 37° C. anaerobically, ATCC 33277

Row | MIC [1, 15] [mg/L] | MIC [12] [mg/L] | MIC [2, 16] [mg/L] | MIC [3, 17] [mg/L] | MIC [4, 18] [mg/L] | MIC [5, 19] [mg/L] | MIC [6, 20] [mg/L] | MIC [7, 21] [mg/L] | MIC [8, 22] [mg/L] | MIC [9, 23] [mg/L] | MIC [10, 24] [mg/L] | MIC [11, 17] [mg/L] | Structure (SMILES) | MIC [13] [mg/L] | other results
1 |  |  |  |  |  |  |  |  |  |  |  |  | COc1cccc(/C=C/c2ccc(-c3ccc(/C=C/c4cccc(OC)c4OCCCN(C)C)cc3)cc2)c1OCCCN(C)C [formula 31] |  | MIC ([1]; ATCC373, 24 h, read-out: MIC Corynebacterium xerosis): 125 mg/L; MIC ([2]; ATCC12228, 24 h, read-out: MIC Staphylococcus epidermis): 125 mg/L; MIC ([3]; 24 h): 7.8 mg/L; MIC ([4]; ATCC6583, 24 h, read-out: MIC Staphylococcus aureus): 62.5 mg/L; MIC ([5]; ATCC10558, 24 h, read-out: MIC Streptococcus gordonii): 11.2 mg/L; MIC ([6]; ATCC43146, read-out: MIC Actinomyces viscosus): 3.8 mg/L; MIC ([7]; ATCC33402, 24 h, read-out: MIC Streptococcus mutans): 7.5 mg/L; MIC ([8]; ATCC10953, read-out: MIC Fusobacterium nucleatum subsp. polymorphum): 15 mg/L; MIC ([9]; ATCC33563, read-out: MIC Prevotella nigrescens): 3.75 mg/L; MIC [10]: 1.9 mg/L; MIC ([11]; 24 h): 15.6 mg/L
2 | 3.1 | 25 | 12.5 | 6.3 | 12.5 | 15 | 7.5 | 15 | 7.5 | 3.8 | 7.5 | 3.1 | COc1cccc(/C=C/c2ccc(/C=C/c3cccc(OC)c3OCCCN(C)C)cc2)c1OCCCN(C)C [formula 27] | 200 | 
3 | 3.1 | 25 | 12.5 | 6.3 | 12.5 | 15 | 3.8 | 7.5 | 3.8 | 3.8 | 3.8 | 3.1 | Cc1ccc(/C=C/c2ccc(/C=C/c3ccc(C)c(OCCCN(C)C)c3)cc2)cc1OCCCN(C)C [formula 30] | 200 | MIC [14]: 15 mg/L

From US20070258912A1, “Use of Fluorescent Whitening Agents as Antimicrobials” (priority 2004, published 2007)
